Patent US20240158639A1, “PROCESS FOR PREPARING INDOCYANINE GREEN” (ICROM Srl, priority 2021, published 2024)
Read-outs that look alike come from different tables or passages of the source.

Key:
[1] = in vivo, iv; cited from earlier work
[2] = Stability of the HPLC sample solution; type: physicochemical
Description: Sonicate for 5 minutes verifying complete solubilization.

[3] = 10° C., 30 days, in nitrogen, aluminium + polythene, MeOH
[4] = 10° C., 30 days, no nitrogen, polythene, MeOH
[5] = 20-25° C., 30 days, in nitrogen, aluminium + polythene, MeOH
[6] = 20-25° C., 30 days, no nitrogen, polythene, MeOH
[7] = t0, no nitrogen, polythene, diluent MeOH, % area 254 nm

In the case of “1H-benz[e]indole, 2-[7-[1,3-dihydro-1,1-dimethyl-3-(4-sulfobutyl)-2H-benz[e]indol-2-ylidene]-1,3,5-heptatrienyl]-1,1-dimethyl-3-(4-sulfobutyl) hydroxide, inner salt, sodium salt [compound of formula (I)]”, the “half-life of elimination by the body” value [1] is given as 3 to 4 min, the “time for which the sample solution is stable” value ([2]; sample preparation method 1: 40 mg in 50 ml mixture phase 70:30 A:B) is given as at most 30 min and the “time for which the sample solution is stable” value ([2]; sample preparation method 2: 40 mg in 50 ml methanol) is given as at most 30 min.
For `CC1(C)C(/C=C/C=C/C=C/C=C2\N(CCCCS(=O)(=O)[O-])c3ccc4ccccc4c3C2(C)C)=[N+](CCCCS(=O)(=O)[O-])c2ccc3ccccc3c21.[Na+]` [067/046], the “% rt 3.5 (A)” value [3] was “nq”, the “% rt 4.0” value [3] was 0.02% and the “% rt 8.9” value [3] was 0.04%. For the same compound, the “INNmax (unknown maximum impurity) %” value [3] was 0.07%, the Purity [3] was 99.77% and the “% rt 3.5 (A)” value [4] was “nq”. For the same compound, the “% rt 4.0” value [4] was 0.04%, the “% rt 8.9” value [4] was 0.04% and the “INNmax (unknown maximum impurity) %” value [4] was 0.06%. The Purity [4] was 99.84%, the “% rt 3.5 (A)” value [5] was “nq” and the “% rt 4.0” value [5] was 0.03%. The “% rt 8.9” value [5] was 0.05%, the “INNmax (unknown maximum impurity) %” value [5] was 0.08% and the Purity [5] was 99.71%. For the same compound, the “% rt 3.5 (A)” value [6] was “nq”, the “% rt 4.0” value [6] was 0.076% and the “% rt 8.9” value [6] was 0.05%. For the same compound, the “INNmax (unknown maximum impurity) %” value [6] was 0.076%, the Purity [6] was 99.78% and the “% rt 3.5 (A)” value [7] was “nq”. The “% rt 4.0” value [7] was 0.02%, the “% rt 8.9” value [7] was 0.03% and the “INNmax (unknown maximum impurity) %” value [7] was 0.07%. It also gave a Purity [7] of 99.73%.
